{"source": "patent US20060134779A1", "about": "“Modulation of cell intrinsic strain to control cell modulus, matrix synthesis, secretion, organization, material properties and remodeling of tissue engineered constructs” (priority 2004, published 2006)", "key": {"cell modulus": {"system": "cell modulus", "conditions": "cited from earlier work"}, "elastin": {"system": "elastin", "test": "Quantitative RT-PCR gene expression in BATs: elastin", "type": "cell-based, human", "method": "(§1) Primary human tendon internal fibroblasts (HTIFs) were isolated from discarded human tendon tissue as described previously (Banes et al., J. Ortho Res., 6, 73-82, 1988). HTIFs from passage 2 to 4 were used in this study. BATs™ were fabricated at a cell density of 2 million cells/ml collagen gel suspension (Vitrogen). Cells were incubated at 37° C. for 24 h before addition of 100 pM IL-1β and inhibitors. BAT™ images were recorded with a scanner and automated imaging software, ScanFlex™ (Flexcell International Corp.). Medium was refreshed every 24 h. On day 5, BATs™ were collected, total RNA extracted with an RNeasy mini kit (QIAGen), cDNA synthesized with SuperScriptII (Invitrogen) and quantitative PCR carried out using a quantitative PCR kit from Ambion. The PCR products were separated on 2% agarose gels and the bands were quantitated in Photoshop. The elasticity of BATs™ was tested on day 5. BATs™ were subjected to a maximum stretch (20% elongation, 1 Hz for 1 h) and the BAT™ images were recorded for 24 h after stretch."}, "gel matrix": {"system": "gel matrix", "test": "Gel matrix contraction in a culture system", "type": "cell-based"}, "[1]": {"system": "human tendon internal fibroblast (HTIF)-populated bioartificial tendons (BATs)", "test": "Contraction of HTIF-populated BATs (scanner imaging)", "type": "cell-based", "conditions": "100 pM IL-1β, 24 h post addition", "method": "as §1"}, "[2]": {"system": "human tendon internal fibroblast (HTIF)-populated bioartificial tendons (BATs)", "test": "Elasticity of BATs: length recovery after maximum stretch", "type": "cell-based", "conditions": "100 pM IL-1β", "source_text": "In order to find a better therapeutic method for tendon/ligament repair and/or replacement, several in vitro models for engineered tendon have been developed recently (Awad et al., J. Biomed. Mater Res., 51(2), 233-240, 2000). One of them is a BioArtificial Tendon (BAT™) model system utilizing tenocyte-populated molded collagen gels (Awad et al., J. Biomed. Mater Res., 51(2), 233-240, 2000). This 3D BAT™ system allows the testing of tenocyte responses to drugs, cytokines and mechanical loading but is too weak to replace conventional grafts materials. In an attempt to modulate the material properties of the cell-gel composite, the influence of IL-1β on the elasticity of human tendon internal fibroblast (HTIF)-populated bioartificial tendons (BATs™) was investigated. IL-1β has been reported to increase the expression of matrix metalloproteinases (MMPs) and elastin. It was hypothesized that IL-1 might increase the elasticity of BATs™ by up-regulating the expression of elastin and down-regulating matrix protein (Collagen type I) expression. Gene expression was quantified with quantitative RT-PCR. The elasticity of BATs™ was determined by length recovery after stretch. The influence of IL-1β on the actin cytoskeleton and integrin attachment to matrix in BATs™ also was tested +/−cytochalasin D or GRGDTP, respectively.\nas §1, with “BATs™ were fabricated at a cell density of 2 million cells/ml collagen gel suspension (Vitrogen). Cells were incubated at 37° C. for 24 h before addition of 100 pM IL-1β and inhibitors.” left out, “Medium was refreshed every 24 h.” left out, “The elasticity of BATs™ was tested on day 5.” left out"}, "MMPs 1, 2, 3": {"system": "MMPs 1, 2, 3", "test": "Quantitative RT-PCR gene expression in BATs: MMPs", "type": "cell-based, human", "conditions": "100 pM IL-1β, day 5", "method": "as §1"}, "Collagen type I": {"system": "Collagen type I", "test": "Quantitative RT-PCR gene expression in BATs: Collagen type I", "type": "cell-based, human", "conditions": "100 pM IL-1β, day 5", "method": "as §1"}, "[3]": {"system": "human tendon internal fibroblasts (HTIFs)", "test": "Young's modulus of HTIFs by micropipette aspiration", "type": "cell-based", "conditions": "young and adult patients (FIG. 13)", "method": "(§2) Primary HTIFs were isolated after surgery from discarded human tendon tissue as described previously (Banes et al., J. Ortho Res., 6, 73-82, 1988). HTIFs from passage 2 to 4 were used in this study. HTIFs were allowed to attach and spread for 24 h before addition of 100 pM IL-1β. Medium was refreshed every 24 h. On day 5, cells were collected for cell modulus measurement and gene expression analysis. Young's modulus of HTIFs was measured by aspirating a cell into the bore of a calibrated micropipette with a calibrated vacuum source. The cell-aspiration process was videotaped for subsequent data analysis to calculate the pipette bore size, the steady state pressure required to aspirate a segment of a cell into the pipette bore and the time constant for aspiration. Cytoskeleton change was monitored by rhodamine-phalloidin staining. The expression levels of β-actin was determined by quantitative RT-PCR. Total RNA was extracted with an RNeasy mini kit (QIAGen), cDNA was synthesized with SuperScriptII (Invitrogen) and quantitative PCR was carried out using 18S rRNA as an internal control (Ambion). The PCR products were separated on 2% agarose gels and pixel intensity of the bands was quantitated in Photoshop."}, "β-actin [4]": {"system": "β-actin", "test": "β-actin expression by quantitative RT-PCR in HTIFs", "type": "cell-based, human", "conditions": "for reduction of the message of β-actin: 24 h post addition", "method": "as §2, with “On day 5, cells were collected for cell modulus measurement and gene expression analysis.” left out"}, "β-actin [5]": {"system": "β-actin", "test": "Cytoskeleton change by rhodamine-phalloidin staining in HTIFs", "type": "cell-based, human", "conditions": "100 pM IL-1β", "method": "as §2"}, "[6]": {"system": "human tendon internal fibroblast (HTIF) populated bioartificial tendons (BATs)", "test": "Material properties (modulus) of HTIF-populated BATs", "type": "cell-based"}, "[7]": {"conditions": "20% elongation, 1 Hz for 1 h, day 5"}}, "note": "“Also recorded” adds a separate entry of the source."}
{"molecule": "C=C1[C@@H](C)[C@H]2[C@H](Cc3ccccc3)NC(=O)[C@]23[C@H](OC(C)=O)/C=C/[C@@](C)(O)C(=O)[C@@H](C)C/C=C/[C@H]3[C@@H]1O", "note": "[cytochalasin D]", "values": [{"measurement": "decrease of cell modulus", "setting": "cell modulus", "value": "up to three fold"}]}
{"molecule": "GRGDTP", "values": [{"measurement": "elastin mRNA level", "setting": "elastin; 100 μg/ml GRGDTP alone", "value": "did not affect"}, {"measurement": "stimulation of elastin mRNA by IL-1", "setting": "elastin; 100 μg/ml GRGDTP with 100 pM IL-1β", "value": "reduced"}]}
{"molecule": "Nc1ncnc2c1ncn2[C@@H]1O[C@H](COP(=O)(O)OP(=O)(O)OP(=O)(O)O)[C@@H](O)[C@H]1O", "note": "[ATP, adenosine triphosphate]", "values": [{"measurement": "gel matrix contraction", "setting": "gel matrix", "value": "retard"}]}
{"molecule": "interleukin-1beta [IL-1β]", "values": [{"measurement": "contraction of BATs", "setting": "[1]", "value": "reduced"}, {"measurement": "elasticity of BATs", "setting": "[2]; tested on day 5", "value": "increased"}, {"measurement": "survival of maximum stretch", "setting": "[2]; [7]", "value": "survived"}, {"measurement": "time for elongated BATs to recover to original length post stretch", "setting": "[2]; [7]", "value": 8, "unit": "h"}, {"measurement": "expression of MMPs 1, 2, 3", "setting": "MMPs 1, 2, 3", "value": "up-regulated; also recorded: up-regulation"}, {"measurement": "expression of elastin", "setting": "elastin; 100 pM IL-1β, day 5", "value": "up-regulated"}, {"measurement": "expression of Collagen type I", "setting": "Collagen type I", "value": "down-regulated"}, {"measurement": "cell modulus of monolayer HTIFs", "setting": "[3]", "value": "reduced"}, {"measurement": "reduction of the message of β-actin", "setting": "β-actin [4]; 100 pM IL-1β, 2D cultures", "value": "more than 50%"}, {"measurement": "reduction of the message of β-actin", "setting": "β-actin [4]; 100 pM IL-1β, 3D cultures", "value": "more than 50%"}, {"measurement": "message level of β-actin", "setting": "β-actin [4]; 100 pM IL-1β, day 3, 3D cultures", "value": "returned to normal"}, {"measurement": "expression of β-actin", "setting": "β-actin [4]; 2D cultures, days 1 and 3 (FIG. 14A)", "value": "reduced"}, {"measurement": "cells with cytoskeletal structure disrupted", "setting": "β-actin [5]; 2D cultures", "value": "about 20%"}, {"measurement": "protein level of β-actin", "setting": "β-actin [5]; 2D cultures, day 3", "value": "further reduced"}, {"measurement": "protein level of β-actin", "setting": "β-actin [5]; 2D cultures, day 5", "value": "mostly recovered"}, {"measurement": "increase of intercellular space at the perpendicular direction of BATs", "setting": "β-actin [5]; 3D BATs, days 1 and 3", "value": "more than 100%"}, {"measurement": "fluorescence intensity of rhodamine-phalloidin staining compared to control", "setting": "β-actin [5]; 3D bioartificial tendons, day 5", "value": "much lower"}, {"measurement": "protein level of β-actin", "setting": "β-actin [5]; rhodamine-phalloidin staining", "value": "down regulated"}, {"measurement": "modulus of BATs", "setting": "[6]", "value": "reduced"}]}
